Converted amounts (≈) assume the structure as drawn. The source made the active and inactive calls. No cut-off for these calls is given here.
Columns and labels:
[1] = Antioxidant activity assessed as superoxide radical anion scavenging activity; format: functional
[2] = test system: Simplexvirus; assay: Antiviral activity against HSV up to 200 ug/mL by extracellular virucidal assay; format: functional, organism-based
[3] = Cytotoxicity against human MT4 cells by MTT assay; format: cell-based
[4] = Selectivity index, ratio of CC50 for human MT4 cells to IC50 for HIV infected in human MT4 cells; format: functional
[5] = test system: Human immunodeficiency virus; assay: Antiviral activity against HIV infected in human MT4 cells assessed as inhibition of virus-induced cytopathic effect by MTT assay; format: functional, organism-based; conditions: Human immunodeficiency virus 1, MT4
[6] = test system: Streptococcus pyogenes; assay: Antimicrobial activity against Streptococcus pyogenes; format: functional
[7] = test system: Candida albicans; assay: Antimicrobial activity against Candida albicans; format: functional
[8] = test system: Staphylococcus aureus; assay: Antimicrobial activity against Staphylococcus aureus; format: functional
[9] = test system: Mycolicibacterium fortuitum; assay: Antimicrobial activity against Mycobacterium fortuitum; format: functional
[10] = test system: Enterobacter cloacae; assay: Antimicrobial activity against Enterobacter cloacae; format: functional
[11] = test system: Salmonella paratyphi; assay: Antimicrobial activity against Salmonella paratyphi; format: functional, Salmonella enterica subsp. enterica serovar Paratyphi A; conditions: Salmonella enterica
[12] = test system: Pseudomonas aeruginosa; assay: Antimicrobial activity against Pseudomonas aeruginosa; format: functional
[13] = test system: Escherichia coli; assay: Antimicrobial activity against Escherichia coli; format: functional
[14] = Modulation of classical complement pathway system assessed as hemoglobin release by spectrophotometry
[15] = Modulation of alternative complement pathway system assessed as hemoglobin release by spectrophotometry

Row | SMILES | IC50 [1] | Activity [2] | CC50 [3] | Ratio CC50/IC50 [4] | IC50 [5] | MBC [7] | MIC [7] | MBC [8] | MIC [8] | MBC [9] | MIC [9] | MBC [10] | MIC [10] | MBC [11] | MIC [11] | MBC [12] | MIC [12] | MBC [13] | MIC [13] | IC50 [14] | other results
1 | Oc1cc(O)c2c(c1)O[C@H](c1ccc(O)c(O)c1)[C@@H](O)[C@@H]2c1c(O)cc2c(c1O)C[C@H](O)[C@@H](c1ccc(O)c(O)c1)O2 | 27.3 µM | inactive | 141 µg/mL (≈ 244 µM) | 5 | 29.9 µg/mL (≈ 51.7 µM) | > 100 µg/mL | > 100 µg/mL | > 100 µg/mL | > 100 µg/mL | > 100 µg/mL | > 100 µg/mL | > 100 µg/mL | > 100 µg/mL | > 100 µg/mL | > 100 µg/mL | > 100 µg/mL | > 100 µg/mL | > 100 µg/mL | > 100 µg/mL | 18.5 µM | MBC [6]: 100 µg/mL (≈ 173 µM); MIC [6]: 100 µg/mL (≈ 173 µM); Activity [15]: inactive
2 | Oc1cc(O)c2c(c1)O[C@H](c1ccc(O)c(O)c1)[C@H](O)[C@H]2c1c(O)cc(O)c2c1O[C@H](c1ccc(O)c(O)c1)[C@H](O)[C@H]2c1c(O)cc(O)c2c1O[C@H](c1ccc(O)c(O)c1)[C@H](O)C2 [PROCYANIDIN C1] | 10.7 µM | inactive | 16.5 µg/mL (≈ 19 µM) | 5 | 4.3 µg/mL (≈ 4.96 µM) | > 100 µg/mL | > 100 µg/mL | > 100 µg/mL | > 100 µg/mL | > 100 µg/mL | > 100 µg/mL | > 100 µg/mL | > 100 µg/mL | > 100 µg/mL | > 100 µg/mL | > 100 µg/mL | > 100 µg/mL | > 100 µg/mL | > 100 µg/mL | 6 µM | MBC [6]: 100 µg/mL (≈ 115 µM); MIC [6]: 100 µg/mL (≈ 115 µM); IC50 [15]: 85.5 µM
3 | Oc1cc(O)c2c(c1)O[C@H](c1ccc(O)c(O)c1)[C@H](O)C2 [(-)-EPICATECHIN] | 18.3 µM | – | 136 µg/mL (≈ 469 µM) | 4 | 34.1 µg/mL (≈ 117 µM) | > 100 µg/mL | > 100 µg/mL | > 100 µg/mL | > 100 µg/mL | > 100 µg/mL | > 100 µg/mL | > 100 µg/mL | > 100 µg/mL | > 100 µg/mL | > 100 µg/mL | > 100 µg/mL | > 100 µg/mL | > 100 µg/mL | > 100 µg/mL | 656 µM | Activity [15]: inactive
4 | O=C(/C=C/c1ccc(O)c(O)c1)O[C@H](Cc1ccc(O)c(O)c1)C(=O)O [ROSMARINIC ACID] | – | – | – | – | – | – | – | – | – | – | – | – | – | – | – | – | – | – | – | 21.9 µM | IC50 [15]: 408 µM
5 | Oc1cc(O)c2c(c1)O[C@H](c1ccc(O)c(O)c1)[C@H](O)[C@H]2c1c(O)cc(O)c2c1O[C@H](c1ccc(O)c(O)c1)[C@@H](O)C2 [PROCYANIDIN B1] | – | – | – | – | – | > 100 µg/mL | > 100 µg/mL | > 100 µg/mL | > 100 µg/mL | > 100 µg/mL | > 100 µg/mL | > 100 µg/mL | > 100 µg/mL | > 100 µg/mL | > 100 µg/mL | > 100 µg/mL | > 100 µg/mL | > 100 µg/mL | > 100 µg/mL | 31.3 µM | IC50 [15]: 72 µM
6 | Oc1cc(O)c2c(c1)O[C@H](c1ccc(O)c(O)c1)[C@@H](O)[C@@H]2c1c(O)cc(O)c2c1O[C@H](c1ccc(O)c(O)c1)[C@@H](O)C2 | 41.3 µM | inactive | 118 µg/mL (≈ 204 µM) | 5 | 27 µg/mL (≈ 46.7 µM) | > 100 µg/mL | > 100 µg/mL | > 100 µg/mL | > 100 µg/mL | > 100 µg/mL | > 100 µg/mL | > 100 µg/mL | > 100 µg/mL | > 100 µg/mL | > 100 µg/mL | > 100 µg/mL | > 100 µg/mL | > 100 µg/mL | > 100 µg/mL | 37.7 µM | Activity [15]: inactive
7 | Oc1cc(O)c2c(c1)O[C@H](c1ccc(O)c(O)c1)[C@@H](O)[C@@H]2c1c(O)cc(O)c2c1O[C@H](c1ccc(O)c(O)c1)[C@H](O)C2 | 30 µM | inactive | 0.3 µg/mL (≈ 0.519 µM) | <1 | > 0.3 µg/mL | > 100 µg/mL | > 100 µg/mL | > 100 µg/mL | > 100 µg/mL | > 100 µg/mL | > 100 µg/mL | > 100 µg/mL | > 100 µg/mL | > 100 µg/mL | > 100 µg/mL | > 100 µg/mL | > 100 µg/mL | > 100 µg/mL | > 100 µg/mL | 45.5 µM | MBC [6]: 50 µg/mL (≈ 86.4 µM); MIC [6]: 25 µg/mL (≈ 43.2 µM); Activity [15]: inactive
8 | Cc1cn([C@H]2C[C@H](N=[N+]=[N-])[C@@H](CO)O2)c(=O)[nH]c1=O [ZIDOVUDINE] | – | – | 2.58 µg/mL (≈ 9.66 µM) | – | 0.0002 µg/mL (≈ 0.000748 µM) | – | – | – | – | – | – | – | – | – | – | – | – | – | – | – | –
9 | O=C1c2c(O)cc(O)cc2O[C@H](c2ccc(O)c(O)c2)[C@H]1O [(+)-TAXIFOLIN] | 24.2 µM | inactive | 25.4 µg/mL (≈ 83.5 µM) | <1 | > 25.4 µg/mL | > 100 µg/mL | > 100 µg/mL | > 100 µg/mL | > 100 µg/mL | > 100 µg/mL | > 100 µg/mL | > 100 µg/mL | > 100 µg/mL | > 100 µg/mL | > 100 µg/mL | > 100 µg/mL | > 100 µg/mL | > 100 µg/mL | > 100 µg/mL | 850 µM | Activity [15]: inactive
10 | Oc1cc(O)c2c(c1)O[C@H](c1ccc(O)c(O)c1)[C@@H](O)C2 [CIANIDANOL] | 13.1 µM | – | 86.8 µg/mL (≈ 299 µM) | <1 | > 86.8 µg/mL | > 100 µg/mL | > 100 µg/mL | > 100 µg/mL | > 100 µg/mL | > 100 µg/mL | > 100 µg/mL | > 100 µg/mL | > 100 µg/mL | > 100 µg/mL | > 100 µg/mL | > 100 µg/mL | > 100 µg/mL | > 100 µg/mL | > 100 µg/mL | 647 µM | Activity [15]: inactive
11 | Oc1cc(O)c2c(c1)O[C@H](c1cc(O)c(Oc3cc(O)c4c(c3)O[C@H](c3cc(O)c(O)c(O)c3)[C@H](O)C4)c(O)c1)[C@@H](O)C2 | 2 µM | – | – | – | – | > 100 µg/mL | > 100 µg/mL | > 100 µg/mL | > 100 µg/mL | > 100 µg/mL | > 100 µg/mL | > 100 µg/mL | > 100 µg/mL | > 100 µg/mL | > 100 µg/mL | > 100 µg/mL | > 100 µg/mL | > 100 µg/mL | > 100 µg/mL | 14.6 µM | IC50 [15]: 86 µM
12 | Oc1cc(O)c2c(c1)O[C@H](c1ccc(O)c(O)c1)[C@@H](O)[C@@H]2c1c(O)cc2c(c1O)C[C@@H](O)[C@@H](c1ccc(O)c(O)c1)O2 | 32.9 µM | inactive | 127 µg/mL (≈ 219 µM) | 8 | 19.6 µg/mL (≈ 33.9 µM) | > 100 µg/mL | > 100 µg/mL | > 100 µg/mL | > 100 µg/mL | > 100 µg/mL | > 100 µg/mL | > 100 µg/mL | > 100 µg/mL | > 100 µg/mL | > 100 µg/mL | > 100 µg/mL | > 100 µg/mL | > 100 µg/mL | > 100 µg/mL | 19.7 µM | IC50 [15]: 83.7 µM
